Here are results for 7 molecules from patent publication EP4806892A1, “CEREBLON E3 UBIQUITIN LIGASE INHIBITOR” (GAN & LEE PHARMACEUTICALS CO., LTD., priority 2023, dated 2025).

Like-named read-outs stand apart in the source and are kept apart here.

For one test, the system named is TNFα. The test is described as follows: LPS-induced TNFα secretion by PBMC (HTRF detection). It is filed as cell-based. The note with it: Homo sapiens, hPBMC, 20 hours compound then LPS 200 ng/mL for 5 hours, read-out: IC50 (inhibition of LPS-induced TNFα). As for the experimental part: (§1) After thawing, cryopreserved hPBMC (FPB003F-C, Shanghai OriBiotech) cells were resuspended in RPMI 1640 medium (30-2001,ATCC) containing 10% inactivated FBS (10099141C, Gibco) and cultured overnight at 37°C and 5% CO2. The next day, hPBMC cells were seeded in a 96-well cell culture plate at a density of 2 × 10^5 cells/well/100 µL (2 × 10^6 cells/mL), and 100 µL of compound in dimethyl sulfoxide solution (final concentration 0.0064-2500 nM) was added. […] The cell plate was placed in a 37°C, 5% CO2 incubator for 5 hours, and then centrifuged at 1000 rpm for 15 minutes. 100 µL of cell supernatant was collected from each well for cytokine concentration testing, which was tested immediately or frozen at -80°C for testing.
The TNFα concentration in the supernatant of LPS-induced THP-1 cells was determined using the TNF […] detection kit (62[…], PerkinElmer).
TNFα standard solutions of varying concentrations were prepared according to the product instructions, ranging from 0 to 2500 pg/mL. Equal volumes of Eu Cryptate antibody (1×) and d2 antibody (1×) were used to prepare the antibody mixture. 16 µL of standard solution or sample supernatant and 4 µL of the antibody mixture were added to each well of a 384-well white plate. The mixture was centrifuged at 800 rpm for 1 minute and incubated at room temperature for 2 hours. The absorbance at 620 nm and […] was read using a microplate reader (SPARK m1000pro, TECAN). A standard curve was plotted using the signal values of each TNFα standard solution. The TNFα concentration in each sample was determined based on the corresponding concentration of the signal value on the standard curve. The inhibitory rate of the compound on LPS-induced TNFα expression in THP-1 cell supernatants at different drug concentrations was calculated based on the TNFα concentration. The inhibition rate data were plotted in GraphPad Prism 8.0 software, and the IC50 value was calculated. Inhibition Rate = [1−(OD(Sample)−OD(Blank))/(OD(Control)−OD(Blank))] × 100% [formula] Table 9: Degradation effect of example compounds on IRAK4 in PBMC cells
(In general: In TR-FRET formats the signal depends on donor and acceptor labels being close together.)

The next test concerns IL-6. As to the kind of experiment: LPS-induced IL-6 secretion by hPBMC (ELISA). The format is cell-based. The note with it: Homo sapiens, 20 h compound then LPS 200 ng/mL for 5 h; for inhibition at […]: 2500nM, read-out: Inhibition Rate of IL-6 (2500nM). On the procedure:
as §1, with “OriBiotech.)” for “OriBiotech)”, “(30-2001, ATCC)” for “(30-2001,ATCC)”, “h,” for “hours,”, “min.” for “minutes.”, “awhich” for “which”
The IL-6 concentration in the supernatant of hPBMC cells induced by LPS was determined using a Human IL-6 ELISA kit (D6050, RD).
IL-6 standard solutions of varying concentrations were prepared according to the product instructions, ranging from 0 to 300 pg/mL. 100 µL of Assay Diluent RD1W and 100 µL of standard solution or sample supernatant were added to a pre-coated ELISA plate and incubated at room temperature for 2 hours. After washing the plate four times with 1× wash buffer, then 200 µL of Human IL-6 Conjugate was added and incubated at room temperature for 2 hours. After washing the plate four times with 1× wash buffer, then 200 µL of Substrate Solution was added and incubated at room temperature for 20 minutes. Finally, 50 µL of Stop Solution was added to terminate the reaction. The absorbance at 450 nm and 570 nm were read using a microplate reader (SPARK m1000pro, TECAN). The standard curve was plottd by the signal value of each concentration of IL-6 standard solution, and the IL-6 concentration in each sample was determined according to the corresponding concentration of the signal value of each well on the standard curve. The inhibition rate of the compound on LPS-induced IL-6 in the hPBMC cell supernatant at different drug concentrations was calculated according to the IL-6 concentration. The inhibition rate data were plotted in GraphPad Prism 8.0 software to calculate the IC50 value. Inhibition Rate = [1−(OD(sample)−OD(blank))/(OD(control)−OD(blank))] × 100% [formula] Table 10: Inhibitory effect of Example compounds on LPS-induced IL-6 secretion by hPBMC
A general note: An ELISA detects its analyte on a solid surface through an enzyme-linked reagent.

The next test has as its target T1, AR protein (Homo sapiens, UniProt P10275).
T1 construct: AR-positive human prostate cancer cells VCaP (cell source: ATCC); host or cells: VCaP
T1 sequence (P10275 1-920): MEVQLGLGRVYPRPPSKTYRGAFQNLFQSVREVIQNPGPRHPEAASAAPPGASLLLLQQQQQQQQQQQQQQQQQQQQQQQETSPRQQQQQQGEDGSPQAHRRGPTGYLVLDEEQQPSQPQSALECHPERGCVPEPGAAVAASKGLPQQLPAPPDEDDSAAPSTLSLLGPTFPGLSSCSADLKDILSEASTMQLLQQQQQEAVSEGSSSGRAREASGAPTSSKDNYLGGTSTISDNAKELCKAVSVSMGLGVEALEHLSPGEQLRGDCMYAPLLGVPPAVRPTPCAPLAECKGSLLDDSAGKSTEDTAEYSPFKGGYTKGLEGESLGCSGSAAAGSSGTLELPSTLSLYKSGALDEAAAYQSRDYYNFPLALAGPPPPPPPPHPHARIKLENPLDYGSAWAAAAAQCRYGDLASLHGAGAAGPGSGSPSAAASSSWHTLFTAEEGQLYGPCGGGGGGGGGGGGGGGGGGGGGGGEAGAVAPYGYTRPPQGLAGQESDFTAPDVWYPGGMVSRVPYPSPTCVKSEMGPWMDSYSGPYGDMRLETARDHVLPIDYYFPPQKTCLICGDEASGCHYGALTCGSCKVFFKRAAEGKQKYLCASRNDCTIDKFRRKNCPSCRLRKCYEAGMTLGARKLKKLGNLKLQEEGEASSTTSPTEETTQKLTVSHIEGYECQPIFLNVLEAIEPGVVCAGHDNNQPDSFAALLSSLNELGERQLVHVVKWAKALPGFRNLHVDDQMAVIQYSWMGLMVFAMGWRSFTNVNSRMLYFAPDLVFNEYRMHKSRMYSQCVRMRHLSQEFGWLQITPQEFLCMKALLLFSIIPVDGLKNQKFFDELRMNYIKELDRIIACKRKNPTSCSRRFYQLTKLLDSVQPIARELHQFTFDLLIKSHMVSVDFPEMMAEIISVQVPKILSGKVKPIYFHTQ
As to the kind of experiment: AR protein degradation in VCaP cells (Western blot). It is filed as cell-based. The note with it: 8h. On the procedure:
AR-positive human prostate cancer cells VCaP (cell source: ATCC) were cultured in DMEM (GiBco catalog number 11995-065) containing 10% FBS (Hyclone catalog number SH30406.05), and the cells were inoculated in a six-well microplate (Thermo catalog number 140675) at a density of 3 × 10^5 cells/well. After being cultured overnight in a carbon dioxide incubator (ESCO), the prepared compound of the present invention and the positive control sample ARV-766 (energy chemical) solution of different concentrations were added at a volume of 1 µL/well to make the final concentrations of the compound and the positive control sample reach 5nM and 0.5nM, respectively. At the same time, the corresponding solvent control was set and cultured for 8h. After 8h of culture, the culture medium was removed, and the cells were washed with PBS. RIPA lysis buffer containing 1% Protease Inhibitor Cocktail was added. After lysis and centrifugation, a total protein extract was obtained, and the protein concentration in the extract was detected by BCA method. Protein electrophoresis was performed using SDS-PAGE, and then the protein was transferred to a PVDF (Millipore Sigma catalog number PSRP010R5) membrane at a constant voltage of 100V for 60min. The PVDF membrane was placed in a 5% milk powder 1×TBST solution and blocked at room temperature for 1h. The primary antibody solution (Anti-Androgen receptor, Cell Signaling Technology catalog number: 5153S; 1:2000 dilution) was prepared and incubated at 4°C overnight. The primary antibody solution was discarded and the PVDF membrane was washed with 1×TBST for 5 minutes each time, three times. The secondary antibody solution (Thermo catalog number SA5-35571; 1:7500 dilution) was prepared and incubated at room temperature for 1 hour. The secondary antibody solution was discarded and the PVDF membrane was washed with 1×TBST for 5 minutes each time, three times. A dual-color infrared laser imaging system (Licor catalog number Odyssey CLX) was used for Western membrane imaging. The Image Studio software was used to analyze the grayscale of the bands. GAPDH protein bands were also detected for each sample as an internal reference. The AR protein degradation rate of the compound and the positive control sample was calculated based on the grayscale of the protein bands. Among them, "A" means degradation rate ≥ 50%, "B" means 50%> degradation rate ≥ 20%, "C" means 20% degradation rate ≥ 10%, and "D" means degradation rate less than 10%.
For orientation: A western blot detects proteins with antibodies after separation by electrophoresis.

The next test addresses E3 ubiquitin ligase CRBN (Homo sapiens, UniProt Q96SW2). The test is described as follows: CRBN competitive binding assay (HTRF, thalidomide-XL665 displacement). On the procedure:
CRBN binding activity test kit (CEREBLON BINDING KITS (PE, 64BD CRBN PEG)).
The detection is based on homogeneous time-resolved fluorescence (HTRF) technology.
This kit uses a europium-labeled GST antibody (GST Eu Cryptate Antibody) as the donor and XL665-labeled thalidomide (Thalidomide-Red reagent) as the receptor. The donor binds to the GST-tagged CRBN protein.
The donor and acceptor were each diluted 50-fold using the buffer (PROTAC binding buffer 1) in the kit. The CRBN protein was diluted 45-fold. The 8 mM compound solution disclosed in the present invention was diluted 10-fold using the diluent (1 X diluent) in the kit, and then the dilutd solution was subjected to 5-fold gradient dilution of the diluent, diluted 7 times sequentially. […] The mixture was incubated at room temperature for 3 hours. The ratio of the acceptor and donor emission signals for each individual well was calculated.
IC50 value was calculated based on compound concentration, Ratio, and coefficient of variation using GraphPad Prism.

Setting [1] is: competition with XL665-labeled thalidomide for GST-tagged CRBN protein, 3 hours at room temperature, read-out: IC50.

Consider `O=C1CCN(c2ccc3c(c2)CC2(CO3)CN(CC3CCN(C(=O)C4CCC(n5cc(NC(=O)c6cnn7ccc(N8CC9CC8CO9)nc67)c(C(F)F)n5)CC4)CC3)C2)C(=O)N1` (centres unmarked) [IR-P-6], for which the IC50 in the test on TNFα amounted to 0.0956 µM. For the same molecule, the inhibition at […] in the test with IL-6 was determined as 65%.

`C[C@H]1CC2(CCN(c3ccc(C(=O)N4CCC(F)(CN5CCC6(CC5)COc5cc(N7CCC(=O)NC7=O)ccc56)CC4)cc3)CC2)CN1c1ccc(C#N)c(Cl)c1` [A-P-265, (S)-2-chloro-4-(8-(4-(4-((6-(2,4-dioxotetrahydropyrimidin-1(2H)-yl)-2H-spiro[benzofuran-3,4'-piperidine]-1'-yl)methyl)-4-fluoropiperidine-1-carbonyl)phenyl)-3-methyl-2,8-diazaspiro[4.5]dec-2-yl)benzonitrile]: the “Degradation rate of AR protein in VCAP cells” value on AR protein (0.5 nM) is “B (50%> degradation rate ≥ 20%)”; at AR protein (5 nM), “A (degradation rate ≥ 50%)”.

`O=C1CCN(c2ccc3c(c2)CC2(CCN(CC4CCN(C(=O)C5CCC(n6cc(NC(=O)c7cnn8ccc(N9CC%10CC9CO%10)nc78)c(C(F)F)n6)CC5)CC4)CC2)O3)C(=O)N1` (centres unmarked) [IR-P-7]: the inhibition at […] in the test with IL-6 was found to be 46%.

`Cn1c(=O)n(C2CCC(=O)NC2=O)c2cccc(C#CCOC3CCN(C[C@H]4CC[C@H](n5cc(NC(=O)c6cnn7ccc(N8C[C@H]9C[C@@H]8CO9)nc67)c(C(F)F)n5)CC4)CC3)c21` (some centres unmarked) [KT-474, reference compound]: the IC50 in the test with TNFα was determined as 0.0523 µM. In addition, the inhibition at 0.02 µM in the test with IL-6 (20nM, read-out: Inhibition Rate of IL-6 (20nM)) was 63%. In addition, in the test with IL-6, the inhibition at […] is 85%.

With `O=C1CCN(c2ccc3c(c2)OCC2(CNC2)C3)C(=O)N1` [Example A15], the IC50 on E3 ubiquitin ligase CRBN (setting [1]) amounted to 9.08 µM.

As for `COc1cc2c(cc1N1CCC(=O)NC1=O)OCC[C@H]1CNCCN21` [Example B14, (S)-1-(10-methoxy-2,3,4,4a,5,6-hexahydro-1H-benzo[b]pyrazino[1,2-d][1,4]oxazepin-9-yl)dihydropyrimidine-2,4(1H,3H)-dione], the IC50 on E3 ubiquitin ligase CRBN (setting [1]) turned out to be 5.4 µM.

For `O=C1CCN(c2cc3c(cc2F)N2CCNC[C@@H]2CCO3)C(=O)N1` [Example B13], the IC50 at E3 ubiquitin ligase CRBN stood at 4.45 µM.

A word on the IC50: it is the concentration needed to halve the response being measured. As usually defined, the inhibition is the change of the read-out against control, counted positive when it falls.
